From US20240122179A1, “AUXINIC HERBICIDES AND METHODS OF USE THEREOF” (CORTEVA AGRISCIENCE LLC, priority 2021, published 2024)
Read-outs that look alike come from different tables or passages of the source.

How the values were obtained:
Test in all cases: Postemergence herbicide evaluation, percent reduction in plant size vs untreated control, 21 days after treatment
Kochia scoparia (KCHSC) = type: in vivo; conditions: Bassia scoparia, post-emergence, 504 h, KCHSC, postemergence, read-out: Control/Injury; for pest or weed control at 140 g/ha: rate 140 g ae/ha; for pest or weed control at 280 g/ha: rate 280 g ae/ha
In short: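 Values are percent reduction in plant size against an untreated control, measured 21 days after a single postemergence spray at 140 or 280 g ae/ha (187 L/ha, 276 kPa). Treatments used 3-4 randomized complete-block replicates on 2 to 8 leaf-stage plants kept in a 25-28 °C greenhouse, with compounds in acetone/DMSO-based solvent containing crop oil and surfactant.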

[1] = test system: Amaranthus palmeri (AMAPA); type: in vivo, Amaranthus palmeri (Palmer amaranth); conditions: post-emergence, 504 h, postemergence, read-out: Control/Injury; for pest or weed control at 140 g/ha: rate 140 g ae/ha; for pest or weed control at 280 g/ha: rate 280 g ae/ha
In short: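 Percent reduction in plant size relative to untreated plants, measured 21 days after track-sprayer application (187 L/ha) of 140 or 280 g ae/ha to Amaranthus palmeri at the 2 to 8 leaf stage. Randomized complete block, 3 or 4 replicates, greenhouse at 25 to 28° C; spray solution acetone/DMSO with isopropanol, water and crop oil concentrate.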

Amaranthus rudis (AMATA) = type: in vivo, Amaranthus rudis (tall water hemp); conditions: Amaranthus tuberculatus, post-emergence, 504 h, AMATA, postemergence, read-out: Control/Injury; for pest or weed control at 140 g/ha: rate 140 g ae/ha; for pest or weed control at 280 g/ha: rate 280 g ae/ha
In short: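 Growth-reduction values are percent decrease in plant size relative to untreated plants, scored 21 days post-application. Amaranthus rudis (2-8 leaves) received postemergence sprays at 140 or 280 g ae/ha, 187 L/ha, in a mixed acetone/DMSO/water/isopropanol carrier with crop oil concentrate. Greenhouse conditions were 25-28° C, 50-60% RH; 3-4 randomized replicates.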

[2] = test system: Conyza canadensis (L.) (ERICA); type: in vivo, Conyza canadensis (L.) (Horseweed); conditions: Erigeron canadensis, post-emergence, 504 h, ERICA, postemergence, read-out: Control/Injury; for pest or weed control at 140 g/ha: rate 140 g ae/ha; for pest or weed control at 280 g/ha: rate 280 g ae/ha
In short: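 Track-sprayer applications (187 L/ha, 276 kPa) of 140 or 280 g ae/ha, technical material dissolved in acetone/DMSO then diluted with crop oil and surfactant-containing solvent, to greenhouse Conyza canadensis at 2-8 leaves. After 21 days, size reduction relative to untreated plants was recorded; 3-4 randomized replicates.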

[3] = test system: Ambrosia artemisiifolia (AMBEL); type: in vivo, Ambrosia artemisiifolia (common ragweed); conditions: post-emergence, 504 h, AMBEL, postemergence, read-out: Control/Injury; for pest or weed control at 140 g/ha: rate 140 g ae/ha; for pest or weed control at 280 g/ha: rate 280 g ae/ha
In short: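 Test compounds at 140 or 280 g ae/ha were applied by track sprayer (187 L/ha, spray solution containing acetone/DMSO, isopropanol, crop oil, surfactant) to 2–8 leaf plants, 3–4 replicates. Plants were kept in a greenhouse at 25–28 °C. Size reduction was scored against untreated controls at 21 days.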

[4] = percent reduction vs untreated, 21 days after treatment
[5] = R-AMAPA, percent reduction vs untreated control, 21 days after treatment
[6] = percent reduction vs untreated control, 21 days after treatment

SMILES | pest or weed control at 140 g/ha (Kochia scoparia (KCHSC); [4]) | pest or weed control at 280 g/ha (Kochia scoparia (KCHSC); [4]) | pest or weed control at 140 g/ha ([1]; AMAPA) | pest or weed control at 280 g/ha ([1]; AMAPA) | pest or weed control at 140 g/ha (Amaranthus rudis (AMATA)) | pest or weed control at 280 g/ha (Amaranthus rudis (AMATA)) | pest or weed control at 140 g/ha [2] | pest or weed control at 280 g/ha [2] | pest or weed control at 140 g/ha [3] | pest or weed control at 280 g/ha [3] | pest or weed control at 140 g/ha [1, 5] | pest or weed control at 280 g/ha [1, 5] | pest or weed control at 140 g/ha [2, 4] | pest or weed control at 280 g/ha [2, 4] | pest or weed control at 140 g/ha (Kochia scoparia (KCHSC)) | pest or weed control at 280 g/ha (Kochia scoparia (KCHSC)) | pest or weed control at 140 g/ha [2, 6] | pest or weed control at 280 g/ha [2, 6]
COc1c(Cl)ccc(Cl)c1C(=O)NNCc1ccccc1 [Compound A-111] | 5% | 5% | 20% | 33% | 18% | 28% | 8% | 10% | 25% | 35% | – | – | – | – | – | – | – | –
COc1c(Cl)ccc(Cl)c1C(=O)NNc1nc(C)cs1 [Compound A-108] | 0% | 3% | 8% | 28% | 18% | 28% | 5% | 8% | 5% | 15% | – | – | – | – | – | – | – | –
COc1c(Cl)ccc(Cl)c1C(=O)Oc1ncn(-c2ccccc2)n1 [Compound A-121] | 83% | 96% | 75% | 85% | 75% | 94% | 97% | 99% | 88% | 98% | – | – | – | – | – | – | – | –
COc1c(Cl)ccc(Cl)c1C(=O)O/N=C(\N)CC/C(N)=N/OC(=O)c1c(Cl)ccc(Cl)c1OC [Compound A-140] | 95% | 98% | – | – | 70% | 68% | – | – | 94% | 94% | 54% | 59% | 83% | 83% | – | – | – | –
CCc1nnc(OC(=O)c2c(Cl)ccc(Cl)c2OC)s1 [Compound A-119] | 10% | 3% | 8% | 20% | 20% | 13% | 0% | 10% | 5% | 10% | – | – | – | – | – | – | – | –
COc1c(Cl)ccc(Cl)c1C(=O)N1CCOCC1 [Compound A-65] | – | – | – | – | 15% | 23% | – | – | 40% | 55% | 33% | 33% | – | – | 28% | 37% | 8% | 28%
COc1c(Cl)ccc(Cl)c1C(=O)NNc1ccccc1 [Compound A-131] | 30% | 38% | 23% | 38% | 40% | 30% | 28% | 30% | 48% | 58% | – | – | – | – | – | – | – | –
COc1c(Cl)ccc(Cl)c1C(=O)ONC(C)=O [Compound A-68] | – | – | – | – | 23% | 40% | – | – | 55% | 58% | 42% | 52% | – | – | 58% | 82% | 8% | 23%
COc1c(Cl)ccc(Cl)c1C(=O)n1nc(C)cc1C [Compound A-133] | 0% | 20% | 10% | 15% | 8% | 5% | – | – | 3% | 8% | – | – | 3% | 3% | – | – | – | –
